# Reference: patent US20220332782A1, “Combined Artificial Cell Death/Reporter System Polypeptide for Chimeric Antigen Receptor Cell and Uses Thereof” (Century Therapeutics, Inc., priority 2021, published 2022)
# What was measured:
# Assay type in all cases: cell-based
# [1] = tested on: HSV-TK (A168H)-T2A-PSMA engineered iPSCs; assay: ganciclovir killing of HSV-TK (A168H)-T2A-PSMA engineered iPSCs, visual inspection; conditions: 1 uM ganciclovir, 60 hours
# From the text: (§1) FIGS. 6A-6B show results from cells transfected with a HSV-TK […]-T2A-PSMA transgene.
# [2] = tested on: wild-type (WT; un-engineered) iPSCs; assay: ganciclovir treatment of wild-type (un-engineered) iPSCs, visual inspection; conditions: increasing concentrations of ganciclovir, 60 hours
# From the text: as §1
# [3] = tested on: iPSCs expressing the HSV-TK-PSMA fusion; assay: ganciclovir killing of iPSCs transfected with HSV-TK-PSMA fusion (p1499), cell confluency by imaging; conditions: 1 μM ganciclovir
# Procedure: (§2) The ability to induce cell death in cells expressing the HSV-TK-PSMA fusion or HSV-TK alone was next tested. […] The resulting plasmid (p1474; shown in FIG. 4) was sequenced and grown up for purification using the Qiagen maxi-prep kit. Next, iPSCs were transfected with the p1499 or p1474 plasmids. Transfected and untransfected cells were plated into 6 well dishes (2×10^5 cells/well) and treated with and without 1 μM ganciclovir and imaged at 24 and 48 hours to monitor cell growth. […] It will be appreciated by those skilled in the art that changes could be made to the embodiments described above without departing from the broad inventive concept thereof. It is understood, therefore, that this invention is not limited to the particular embodiments disclosed, but it is intended to cover modifications within the spirit and scope of the present invention as defined by the present description.
# untransfected iPSCs = assay: ganciclovir treatment of untransfected iPSCs (WT control), cell confluency by imaging; conditions: 1 μM ganciclovir
# Procedure: as §2
# [4] = tested on: iPSCs expressing HSV-TK alone; assay: ganciclovir killing of iPSCs transfected with HSV-TK alone (p1474), cell confluency by imaging; conditions: 1 μM ganciclovir, 24 and 48 hours
# Procedure: as §2
smiles,measurement,setting,value
Nc1nc(O)c2ncn(COC(CO)CO)c2n1 [ganciclovir],killing,[1],~100%
same,effect on un-engineered cells,[2],unaffected
same,confluency compared with untreated cells,[3]; 24 and 48 hours,reduced confluency
same,cell confluency,"[3]; 48 hours, iPSCs expressing HSV-TK-PSMA",6%
same,effect on cell growth,untransfected iPSCs; 24 hours and 48 hours,no effect
same,cell confluency,"untransfected iPSCs; 48 hours, WT cells",73%
same,confluency compared with untreated cells,[4],reduced confluency
